Publication PMC9090415, “Discovery of small molecule inhibitors of Plasmodium falciparum apicoplast DNA polymerase” (Journal of Enzyme Inhibition and Medicinal Chemistry, 2022)

Biological target: P. falciparum apicoplast DNA polymerase (Pf-apPOL) (Plasmodium falciparum, UniProt Q8ILY1)
Experiment: Fluorescence-based high-throughput DNA polymerase assay (molecular beacon), primary screen and dose-response
Assay type: biochemical
Conditions: for DNA Pol: 90 min, 10 µM; for % inhibition apPOL 180' 2.5 / % inhibition apPOL 180' 5 / % inhibition apPOL 180' 10 / % inhibition apPOL 180' 20 / % inhibition apPOL 180' 40 / % inhibition apPOL 180' 80: read at 180'
Method in brief: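 Single-point screening used 10 µM compound with 20 nM polymerase, 20 nM hairpin substrate and 6 µM dNTPs for 90 min at 25 °C. Confirmatory titrations (2.5–80 µM) followed fluorescence at three times, and IC50 was derived from a fit including a cooperativity term n.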

[1] = "DNA Pol" of the 186 hits list (screen value)

Sequence of P. falciparum apicoplast DNA polymerase (Pf-apPOL) (Q8ILY1 entry or part of it): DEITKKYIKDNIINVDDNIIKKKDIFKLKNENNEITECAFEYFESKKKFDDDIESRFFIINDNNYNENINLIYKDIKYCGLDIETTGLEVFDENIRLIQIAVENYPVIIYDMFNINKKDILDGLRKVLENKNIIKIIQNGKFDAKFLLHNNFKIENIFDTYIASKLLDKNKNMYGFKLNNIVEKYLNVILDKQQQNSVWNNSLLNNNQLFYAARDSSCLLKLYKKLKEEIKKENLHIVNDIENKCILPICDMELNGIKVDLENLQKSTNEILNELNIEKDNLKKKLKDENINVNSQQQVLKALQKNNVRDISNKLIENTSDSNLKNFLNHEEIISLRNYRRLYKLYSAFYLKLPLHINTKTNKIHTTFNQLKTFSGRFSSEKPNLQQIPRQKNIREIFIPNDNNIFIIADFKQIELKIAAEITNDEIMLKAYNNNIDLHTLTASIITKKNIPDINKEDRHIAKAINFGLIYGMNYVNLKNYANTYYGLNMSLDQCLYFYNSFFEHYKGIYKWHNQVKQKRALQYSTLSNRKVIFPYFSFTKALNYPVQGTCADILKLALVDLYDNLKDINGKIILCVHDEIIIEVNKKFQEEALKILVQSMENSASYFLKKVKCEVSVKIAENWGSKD

COc1cccc(C(=O)N2CCc3c(nc4cc(-c5ccccc5)[nH]n4c3=O)C2)c1OC [Molecule 22, COc1c(OC)cccc1C(=O)N1CCc2c(C1)nc1n(c2=O)[nH]c(c1)c1ccccc1]
DNA Pol [1]: 45
% inhibition Apo pol 10' (DRC-1, concentration 2.5): -0.412%
% inhibition Apo pol 10' (DRC-1, concentration 5): 25%
% inhibition Apo pol 10' (DRC-1, concentration 10): 67%
% inhibition Apo pol 10' (DRC-1, concentration 20): 81%
% inhibition Apo pol 10' (DRC-1, concentration 40): 88%
% inhibition Apo pol 10' (DRC-1, concentration 80): 81%
% inhibition Apol 90' (DRC-1, concentration 2.5): -3%
% inhibition Apol 90' (DRC-1, concentration 5): 12%
% inhibition Apol 90' (DRC-1, concentration 10): 49%
% inhibition Apol 90' (DRC-1, concentration 20): 67%
% inhibition Apol 90' (DRC-1, concentration 40): 83%
% inhibition Apol 90' (DRC-1, concentration 80): 84%
% inhibition apPOL 180' (DRC-1, concentration 2.5): -5.7%
% inhibition apPOL 180' (DRC-1, concentration 5): 2.34%
% inhibition apPOL 180' (DRC-1, concentration 10): 32%
% inhibition apPOL 180' (DRC-1, concentration 20): 49%
% inhibition apPOL 180' (DRC-1, concentration 40): 73%
% inhibition apPOL 180' (DRC-1, concentration 80): 78%
% inhibition Apo pol 5' (DRC-2, concentration 2.5): -0.913%
% inhibition Apo pol 5' (DRC-2, concentration 5): 19%
% inhibition Apo pol 5' (DRC-2, concentration 10): 42%
% inhibition Apo pol 5' (DRC-2, concentration 20): 52%
% inhibition Apo pol 5' (DRC-2, concentration 40): 55%
% inhibition Apo pol 5' (DRC-2, concentration 80): 47%
% inhibition Apol 40' (DRC-2, concentration 2.5): -1.15%
% inhibition Apol 40' (DRC-2, concentration 5): 21%
% inhibition Apol 40' (DRC-2, concentration 10): 45%
% inhibition Apol 40' (DRC-2, concentration 20): 61%
% inhibition Apol 40' (DRC-2, concentration 40): 69%
% inhibition Apol 40' (DRC-2, concentration 80): 66%
% inhibition ApPOL 90' (DRC-2, concentration 2.5): 0.469%
% inhibition ApPOL 90' (DRC-2, concentration 5): 20%
% inhibition ApPOL 90' (DRC-2, concentration 10): 44%
% inhibition ApPOL 90' (DRC-2, concentration 20): 61%
% inhibition ApPOL 90' (DRC-2, concentration 40): 70%
% inhibition ApPOL 90' (DRC-2, concentration 80): 70%
% inhibition apPOL 180' (DRC-2, concentration 2.5): -0.311%
% inhibition apPOL 180' (DRC-2, concentration 5): 13%
% inhibition apPOL 180' (DRC-2, concentration 10): 34%
% inhibition apPOL 180' (DRC-2, concentration 20): 53%
% inhibition apPOL 180' (DRC-2, concentration 40): 65%
% inhibition apPOL 180' (DRC-2, concentration 80): 69%
% inhibition Apo pol 10' (first DRC, concentration 10): 67%
% inhibition Apo pol 10' (first DRC, concentration 20): 81%
% inhibition Apo pol 10' (first DRC, concentration 80): 81%
% inhibition Apol 90' (first DRC, concentration 10): 49%
% inhibition Apol 90' (first DRC, concentration 20): 67%
% inhibition apPOL 180' (first DRC, concentration 20): 49%
DNA Pol (primary screen value, DNA Pol): 45

Cc1ccc(C)n1-c1ccc(C(=O)NNC(=O)c2ccc3nccnc3c2)cc1 [Molecule 53, O=C(c1ccc(cc1)n1c(C)ccc1C)NNC(=O)c1ccc2c(c1)nccn2]
DNA Pol [1]: 84
% inhibition Apo pol 10' (DRC-1, concentration 2.5): 0.1394%
% inhibition Apo pol 10' (DRC-1, concentration 5): 8.124%
% inhibition Apo pol 10' (DRC-1, concentration 10): 19.7971%
% inhibition Apo pol 10' (DRC-1, concentration 20): 46.3145%
% inhibition Apo pol 10' (DRC-1, concentration 40): 80.1476%
% inhibition Apo pol 10' (DRC-1, concentration 80): 83.7947%
% inhibition Apol 90' (DRC-1, concentration 2.5): -3.841%
% inhibition Apol 90' (DRC-1, concentration 5): -1.933%
% inhibition Apol 90' (DRC-1, concentration 10): 7.019%
% inhibition Apol 90' (DRC-1, concentration 20): 31.5983%
% inhibition Apol 90' (DRC-1, concentration 40): 69.8424%
% inhibition Apol 90' (DRC-1, concentration 80): 79.5478%
% inhibition apPOL 180' (DRC-1, concentration 2.5): -5.424%
% inhibition apPOL 180' (DRC-1, concentration 5): -7.03%
% inhibition apPOL 180' (DRC-1, concentration 10): 0.2997%
% inhibition apPOL 180' (DRC-1, concentration 20): 17.1559%
% inhibition apPOL 180' (DRC-1, concentration 40): 57.2023%
% inhibition apPOL 180' (DRC-1, concentration 80): 72.0846%
% inhibition Apo pol 5' (DRC-2, concentration 2.5): 0%
% inhibition Apo pol 5' (DRC-2, concentration 5): 1.67%
% inhibition Apo pol 5' (DRC-2, concentration 10): 25%
% inhibition Apo pol 5' (DRC-2, concentration 20): 46%
% inhibition Apo pol 5' (DRC-2, concentration 40): 55%
% inhibition Apo pol 5' (DRC-2, concentration 80): 57%
% inhibition Apol 40' (DRC-2, concentration 2.5): 3.18%
% inhibition Apol 40' (DRC-2, concentration 5): 2%
% inhibition Apol 40' (DRC-2, concentration 10): 23%
% inhibition Apol 40' (DRC-2, concentration 20): 50%
% inhibition Apol 40' (DRC-2, concentration 40): 64%
% inhibition Apol 40' (DRC-2, concentration 80): 72%
% inhibition ApPOL 90' (DRC-2, concentration 2.5): 0.241%
% inhibition ApPOL 90' (DRC-2, concentration 5): 1.15%
% inhibition ApPOL 90' (DRC-2, concentration 10): 18%
% inhibition ApPOL 90' (DRC-2, concentration 20): 47%
% inhibition ApPOL 90' (DRC-2, concentration 40): 64%
% inhibition ApPOL 90' (DRC-2, concentration 80): 74%
% inhibition apPOL 180' (DRC-2, concentration 2.5): -1.53%
% inhibition apPOL 180' (DRC-2, concentration 5): -2.77%
% inhibition apPOL 180' (DRC-2, concentration 10): 10%
% inhibition apPOL 180' (DRC-2, concentration 20): 37%
% inhibition apPOL 180' (DRC-2, concentration 40): 56%
% inhibition apPOL 180' (DRC-2, concentration 80): 73%
DNA Pol (primary screen value, DNA Pol): 84

N#Cc1c(O)nc(N2CCCCC2)nc1-c1ccc2c(c1)OCO2 [KU0083146]
DNA Pol (186 hits, DNA Pol (screen value), unit not given): 49
DNA Pol ('DNA Pol' (screen value), unit not given): 49
% inhibition Apo pol 10' 2.5 (DRC-1, read at 10', concentration 2.5): 13.1271%
% inhibition Apo pol 10' 5 (DRC-1, read at 10', concentration 5): 26.6749%
% inhibition Apo pol 10' 10 (DRC-1, read at 10', concentration 10): 53.7038%
% inhibition Apo pol 10' 20 (DRC-1, read at 10', concentration 20): 55.5357%
% inhibition Apo pol 10' 40 (DRC-1, read at 10', concentration 40): 66.277%
% inhibition Apo pol 10' 80 (DRC-1, read at 10', concentration 80): 78.8965%
% inhibition Apol 90' 2.5 (DRC-1, read at 90', concentration 2.5): 5.9065%
% inhibition Apol 90' 5 (DRC-1, read at 90', concentration 5): 16.8272%
% inhibition Apol 90' 10 (DRC-1, read at 90', concentration 10): 42.1383%
% inhibition Apol 90' 20 (DRC-1, read at 90', concentration 20): 45.0693%
% inhibition Apol 90' 40 (DRC-1, read at 90', concentration 40): 57.8585%
% inhibition Apol 90' 80 (DRC-1, read at 90', concentration 80): 71.163%
% inhibition apPOL 180' 2.5 (DRC-1, concentration 2.5): -1.148%
% inhibition apPOL 180' 5 (DRC-1, concentration 5): 6.188%
% inhibition apPOL 180' 10 (DRC-1, concentration 10): 30.2008%
% inhibition apPOL 180' 20 (DRC-1, concentration 20): 34.0367%
% inhibition apPOL 180' 40 (DRC-1, concentration 40): 46.9072%
% inhibition apPOL 180' 80 (DRC-1, concentration 80): 62.3261%
% inhibition Apo pol 5' (DRC-2, concentration 2.5): 13%
% inhibition Apo pol 5' (DRC-2, concentration 10): 33%
% inhibition Apo pol 5' (DRC-2, concentration 40): 53%
% inhibition Apol 40' (DRC-2, concentration 2.5): 13%
% inhibition Apol 40' (DRC-2, concentration 10): 33%
% inhibition apPOL 180' (DRC-2, concentration 40): 53%
% inhibition Apo pol 5' 2.5 (DRC-2, read at 5', concentration 2.5): 13%
% inhibition Apo pol 5' 5 (DRC-2, read at 5', concentration 5): 27%
% inhibition Apo pol 5' 10 (DRC-2, read at 5', concentration 10): 33%
% inhibition Apo pol 5' 20 (DRC-2, read at 5', concentration 20): 44%
% inhibition Apo pol 5' 40 (DRC-2, read at 5', concentration 40): 53%
% inhibition Apo pol 5' 80 (DRC-2, read at 5', concentration 80): 57%
% inhibition Apol 40' 2.5 (DRC-2, read at 40', concentration 2.5): 13%
% inhibition Apol 40' 5 (DRC-2, read at 40', concentration 5): 28%
% inhibition Apol 40' 10 (DRC-2, read at 40', concentration 10): 33%
% inhibition Apol 40' 20 (DRC-2, read at 40', concentration 20): 49%
% inhibition Apol 40' 40 (DRC-2, read at 40', concentration 40): 60%
% inhibition Apol 40' 80 (DRC-2, read at 40', concentration 80): 65%
% inhibition ApPOL 90' 2.5 (DRC-2, read at 90', concentration 2.5): 11%
% inhibition ApPOL 90' 5 (DRC-2, read at 90', concentration 5): 26%
% inhibition ApPOL 90' 10 (DRC-2, read at 90', concentration 10): 31%
% inhibition ApPOL 90' 20 (DRC-2, read at 90', concentration 20): 47%
% inhibition ApPOL 90' 40 (DRC-2, read at 90', concentration 40): 59%
% inhibition ApPOL 90' 80 (DRC-2, read at 90', concentration 80): 66%
% inhibition apPOL 180' 2.5 (DRC-2, concentration 2.5): 5.4%
% inhibition apPOL 180' 5 (DRC-2, concentration 5): 17%
% inhibition apPOL 180' 10 (DRC-2, concentration 10): 23%
% inhibition apPOL 180' 20 (DRC-2, concentration 20): 40%
% inhibition apPOL 180' 40 (DRC-2, concentration 40): 53%
% inhibition apPOL 180' 80 (DRC-2, concentration 80): 61%
